Activity calls are given as the source filed them. The calls are words filed in the database; no cut-off is given here.
How the values were obtained:
[1] = test system: Cell membrane; experiment: Induction of mitochondrial membrane potential loss in human MDA-MB-231 cells assessed as proportion of MMP decreased cells at 82.5 nM and measured for 48 hrs by JC-1 staining based flow cytometry assay (reference value: 4.40%); assay type: subcellular; set-up: scale not given: the % may be the effect or the level left
[2] = test system: MDA-MB-231; experiment: Inhibition of cell migration in human MDA-MB-231 cells assessed as wound healing rate at 82.5 nM measured for 24 hrs by scratch wound healing assay (Rvb= 230.22 +/- 32.21 %); assay type: functional; set-up: scale not given: the % may be the effect or the level left
[3] = Selectivity index, ratio of IC50 for antiproliferative activity against human L02 cells to IC50 for antiproliferative activity against human MDA-MB-231 cells; assay type: toxicity, cell-based; settings: L02 cells and MDA-MB-231 cells, read-out: Ratio IC50
[4] = test system: Cell membrane; experiment: Induction of mitochondrial membrane potential loss in human MDA-MB-231 cells assessed as proportion of MMP decreased cells at 0.165 uM and measured for 48 hrs by JC-1 staining based flow cytometry assay (reference value: 4.40%); assay type: subcellular; set-up: scale not given: the % may be the effect or the level left
[5] = test system: Cell membrane; experiment: Induction of mitochondrial membrane potential loss in human MDA-MB-231 cells assessed as proportion of MMP decreased cells at 0.33 uM and measured for 48 hrs by JC-1 staining based flow cytometry assay (reference value: 4.40%); assay type: subcellular; set-up: scale not given: the % may be the effect or the level left
[6] = test system: MDA-MB-231; experiment: Induction of apoptosis in human MDA-MB-231 cells assessed as viable cells at 82.5 nM incubated for 48 hrs by Annexin-V/FITC-PI staining based flow cytometry analysis (reference value: 93.74 %); assay type: functional; settings: read-out: Activity
[7] = test system: MDA-MB-231; experiment: Inhibition of cell migration in human MDA-MB-231 cells assessed as wound healing rate at 0.33 uM measured for 24 hrs by scratch wound healing assay (Rvb= 230.22 +/- 32.21 %); assay type: functional; set-up: scale not given: the % may be the effect or the level left
[8] = test system: HeLa; experiment: Antiproliferative activity against human HeLa cells assessed as reduction in cell viability incubated for 48 hrs by CCk-8 assay; assay type: functional, cell-based
[9] = test system: HepG2; experiment: Antiproliferative activity against human HepG2 cells assessed as reduction in cell viability incubated for 48 hrs by CCk-8 assay; assay type: functional, cell-based; settings: HepG2, 48 h
[10] = test system: MDA-MB-231; experiment: Induction of cell cycle arrest in human MDA-MB-231 cells assessed as accumulation of cells at G1 phase at 0.33 uM incubated for 48 hrs by flow cytometry analysis (reference value: 47.44 %); assay type: functional
[11] = test system: DU-145; experiment: Antiproliferative activity against human DU-145 cells assessed as reduction in cell viability incubated for 48 hrs by CCk-8 assay; assay type: functional, cell-based; settings: DU-145, 48 h
[12] = test system: MDA-MB-231; experiment: Induction of cell cycle arrest in human MDA-MB-231 cells assessed as accumulation of cells at S phase at 82.5 nM incubated for 48 hrs by flow cytometry analysis (reference value: 36.51%); assay type: functional
[13] = test system: MDA-MB-231; experiment: Induction of cell cycle arrest in human MDA-MB-231 cells assessed as accumulation of cells at S phase at 0.33 uM incubated for 48 hrs by flow cytometry analysis (reference value: 36.51%); assay type: functional
[14] = test system: A-375; experiment: Antiproliferative activity against human A-375 cells assessed as reduction in cell viability incubated for 48 hrs by CCk-8 assay; assay type: functional, cell-based; settings: A-375, 48 h
[15] = test system: MDA-MB-231; experiment: Induction of DNA damage in human MDA-MB-231 cells assessed as tail DNA at 0.165 uM incubated for 48 hrs by Comet assay (reference value: 0.007 %); assay type: functional
[16] = test system: MDA-MB-231; experiment: Induction of cell cycle arrest in human MDA-MB-231 cells assessed as accumulation of cells at G2 phase at 0.165 uM incubated for 48 hrs by flow cytometry analysis (reference value: 16.05 %); assay type: functional
[17] = test system: MDA-MB-231; experiment: Induction of apoptosis in human MDA-MB-231 cells assessed as early apoptotic cells at 82.5 nM incubated for 48 hrs by Annexin-V/FITC-PI staining based flow cytometry analysis (reference value: 2.93 %); assay type: functional
[18] = test system: MDA-MB-231; experiment: Induction of cell cycle arrest in human MDA-MB-231 cells assessed as accumulation of cells at G2 phase at 0.33 uM incubated for 48 hrs by flow cytometry analysis (reference value: 16.05 %); assay type: functional
[19] = test system: MDA-MB-231; experiment: Induction of apoptosis in human MDA-MB-231 cells assessed as late apoptotic cells at 0.165 uM incubated for 48 hrs by Annexin-V/FITC-PI staining based flow cytometry analysis (reference value: 2.34 %); assay type: functional
[20] = test system: MDA-MB-231; experiment: Inhibition of cell migration in human MDA-MB-231 cells assessed as wound healing rate at 0.33 uM measured immediately by scratch wound healing assay (Rvb= 871.53 +/- 3.02 %); assay type: functional; set-up: scale not given: the % may be the effect or the level left
[21] = test system: MDA-MB-231; experiment: Induction of apoptosis in human MDA-MB-231 cells assessed as late apoptotic cells at 0.33 uM incubated for 48 hrs by Annexin-V/FITC-PI staining based flow cytometry analysis (reference value: 2.34 %); assay type: functional
[22] = test system: MDA-MB-231; experiment: Induction of apoptosis in human MDA-MB-231 cells assessed as viable cells at 0.165 uM incubated for 48 hrs by Annexin-V/FITC-PI staining based flow cytometry analysis (reference value: 93.74 %); assay type: functional; settings: read-out: Activity
[23] = test system: MDA-MB-231; experiment: Induction of apoptosis in human MDA-MB-231 cells assessed as necrotic cells at 82.5 nM incubated for 48 hrs by Annexin-V/FITC-PI staining based flow cytometry analysis (reference value: 0.99 %); assay type: functional
[24] = test system: MDA-MB-231; experiment: Induction of apoptosis in human MDA-MB-231 cells assessed as viable cells at 0.33 uM incubated for 48 hrs by Annexin-V/FITC-PI staining based flow cytometry analysis (reference value: 93.74 %); assay type: functional; settings: read-out: Activity
[25] = test system: MDA-MB-231; experiment: Induction of cell cycle arrest in human MDA-MB-231 cells assessed as accumulation of cells at G1 phase at 0.165 uM incubated for 48 hrs by flow cytometry analysis (reference value: 47.44 %); assay type: functional
[26] = test system: MDA-MB-231; experiment: Induction of apoptosis in human MDA-MB-231 cells assessed as necrotic cells at 0.33 uM incubated for 48 hrs by Annexin-V/FITC-PI staining based flow cytometry analysis (reference value: 0.99 %); assay type: functional
[27] = test system: A549; experiment: Antiproliferative activity against human A549 cells assessed as reduction in cell viability incubated for 48 hrs by CCk-8 assay; assay type: functional, cell-based; settings: A549, 48 h
[28] = test system: MDA-MB-231; experiment: Induction of DNA damage in human MDA-MB-231 cells assessed as tail DNA at 0.33 uM incubated for 48 hrs by Comet assay (reference value: 0.007 %); assay type: functional
[29] = test system: MDA-MB-231; experiment: Inhibition of cell adhesion in human MDA-MB-231 cells assessed as reduction in cell adhesion by measuring fluorescence intensity at 82.5 to 330 nM incubated for 48 hrs by flow cytometry analysis; assay type: functional, cell-based; settings: dose 82.5-330 nM
[30] = test system: MDA-MB-231; experiment: Induction of cell cycle arrest in human MDA-MB-231 cells assessed as accumulation of cells at S phase at 0.165 uM incubated for 48 hrs by flow cytometry analysis (reference value: 36.51%); assay type: functional
[31] = test system: MDA-MB-231; experiment: Induction of apoptosis in human MDA-MB-231 cells assessed as late apoptotic cells at 82.5 nM incubated for 48 hrs by Annexin-V/FITC-PI staining based flow cytometry analysis (reference value: 2.34 %); assay type: functional
[32] = test system: MDA-MB-231; experiment: Induction of DNA damage in human MDA-MB-231 cells assessed as tail DNA at 82.5 nM incubated for 48 hrs by Comet assay (reference value: 0.007 %); assay type: functional

`C[C@H]1CCC/C=C/[C@@H]2C[C@H](O)C[C@H]2[C@H](OC(=O)CCCC(=O)OCCOc2ccc(-c3cc(=S)ss3)cc2)/C=C/C(=O)O1` showed an Activity [1] of 16.3%, an Activity [2] of 383.42% and a selectivity ratio [3] of 5.3. The Activity [4] was 31.7%, the Activity [5] was 49.8% and the viability at 0.0825 µM [6] was 82%. It also gave an Activity [7] of 610.67%, an IC50 [8] of 850 nM and an IC50 [9] of 750 nM. For the same molecule, the Activity [10] was 69.88%, the IC50 [11] was 690 nM and the Activity [12] was 30.23%. For the same molecule, the Activity [13] was 22.99%, the IC50 [14] was 1820 nM and the Activity [15] was 39.11%. The Activity [16] was 9.52%, the Activity [17] was 10.01% and the Activity [18] was 7.13%. For the same molecule, the Activity [19] was 16.31%, the Activity [20] was 844.92% and the Activity [21] was 31.61%. For the same molecule, the viability at 0.165 µM [22] was 71.7%, the Activity [23] was 2.12% and the viability at 0.33 µM [24] was 43.2%. For the same molecule, the Activity [25] was 60.09%, the Activity [26] was 4.11% and the IC50 [27] was 580 nM. The Activity [28] was 49.49%, the inhibition [29] was “Active” and the Activity [30] was 30.39%. It also gave an Activity [31] of 5.82% and an Activity [32] of 20.49%.

— ChEMBL document CHEMBL5325456, “5-(4-Hydroxyphenyl)-3H-1,2-dithiole-3-thione derivatives of brefeldin A: Design, synthesis and cytotoxicity in MDA-MB-231 human breast cancer cells” (Bioorg Med Chem, 2023)
